Measured values published in patent US10696647B2, “Pharmacological treatment of obsessive-compulsive disorder” (BIOCODEX, priority 2013, dated 2020).
Values joined by “and” are separate entries in the source; they are usually repeats but may differ in a detail not shown here. Equal entries are not always repeated.

Assays:
Assay type in all cases: in vivo, NMRI mice
[1] = test system: marble-burying behavior in mice; test: Marble-burying behavior in mice (model of obsessive-compulsive disorder); conditions: for number of marbles buried (at least 2/3 buried, counted after 30 min): vs vehicle; for dose at which the decrease in number of marbles buried reached significance: p<0.05 vs vehicle
Text: Marble-burying behavior in the rodent is considered to be a model of obsessive-compulsive disorder (OCD) and is commonly used to assess the activity of candidate compounds in the prevention or treatment of OCD (Ishimaru et al. (1995) Jpn. J. Pharmacol. 68:65-70; Gaikwad & Parle (2010) Asian Journal of Pharmaceutical and Clinical Research 3:101-103; Prajapati et al. (2011) Pharmacognosy Res. 3:62-66). […] In addition, because the motor behavior can interfere with the burying behavior, the effects of stripentol in the rota rod test and spontaneous locomotion have been also evaluated.
(§1) Six-week old NMRI mice (30-32 g) were purchased from Janvier breeding (Le Genest-St Isle; France). Mice were housed ten per translucent polypropylene cage (internal dimensions; 37.5 cm×37.5 cm×[…], L×W×H) under standard laboratory conditions (22±2° C., 12-h light/dark cycle, lights on at 7:00 AM) with food (AO4, SAFE, France) and tap water available ad libitum. No less than one week of rest followed their arrival. All animal procedures were carried out in accordance with the European Community council directive of 24 of Nov. 1986 (86/609/EEC) for the care and use of laboratory animals and the French government guidelines (authorization C60-159-04—December, 2009).
Mice were habituated to the testing room at least 60 min before any behavioural evaluation. All tests took place between 9:00 AM and 3:00 PM unless otherwise stated. The behavioural tests were performed by different well-trained experimenters who were kept unaware of the treatment administered. All experiments were performed in a randomized manner.
The marble-burying behavior of mice was conducted according to the methodology of Njung'e and Handley (1991) Pharmacol Biochem Behav 1991; 38: 63-67. Briefly, each mouse was placed individually in a polycarbonate cage (Type S-River; 26.5×16×14 cm height) containing 20 clean glass marbles of diameter 1.5 cm evenly spaced on 5 cm deep sawdust. The cage-lid was a metal grid. No food or water was present. The marbles were cleaned with an alcohol solution (10%; v/v) between each animal. The number of marbles at least ⅔ buried was counted 30 min later.
These compounds were administered under a volume of 0.1 ml/10 g of body weight. Control animals received an equivalent volume of vehicle.
(§2) All data are expressed as mean±SEM. The number of marble buried, locomotor activity and the time spent on the rot rod were analyzed by one-way analyse of variance (ANOVA) or the Kruskall Wallis procedure followed post-hoc by the Dunnett's test or Dunn's method respectively to locate the differences between the treated groups and the vehicle group. Differences were considered statistically significant when p<0.05. Statistical tests were run using SigmaStat v3.5 (SPSS, inc, Chicago, Ill., USA).

spontaneous locomotion = test: Spontaneous locomotor activity (distance travelled, rearings); conditions: up to 200 mg/kg i.p.; measured for 30 min
Method: as §1, with “2009). […]” for “2009).”
Testing occurred in a quiet room under a light level of approximately 400 lux. […] Locomotor activity and rearing were measured by vibrations analysis and the interruption of infra-red beams respectively (ActiV-Meter; Software BIO-ACTIV; Bioseb-Vitrolles-France). The distance travelled (in cm) and the number of rearings were measured for 30 min. […]
as §2, with “Differences were considered statistically significant when p<0.05. Statistical tests were run using SigmaStat v3.5 (SPSS, inc, Chicago, Ill., USA).” left out

rotarod performance time = test: Rotarod test (motor performance and coordination); conditions: doses up to 200 mg/kg i.p.; 16 rpm, up to 120 s
Method: as §1
Mice were habituated to the testing room at least 60 min before any behavioural evaluation. […]
The rotarod test was performed in accordance with the teachings of Kohara et al. (2005) J Pharmacol Exp Ther 2005; 315: 163-169. […] In the drug evaluation session, rotarod performance time was measured three times, up to 120 s, and the mean was adopted as the performance time for each animal. […]
as §2, with “Differences were considered statistically significant when p<0.05. Statistical tests were run using SigmaStat v3.5 (SPSS, inc, Chicago, Ill., USA).” left out

SMILES | number of marbles buried (at least 2/3 buried, counted after 30 min) ([1]; stiripentol 100-200 mg/kg i.p. 60 min before testing, F(3.42)=5.425, p=0.003) | dose at which the decrease in number of marbles buried reached significance ([1]; stiripentol i.p. 60 min before testing) | distance travelled (spontaneous locomotion) | number of rearings (spontaneous locomotion) | time spent on the rota rod (rotarod performance time) | number of marbles buried (at least 2/3 buried, counted after 30 min) ([1]; clomipramine 5-20 mg/kg i.p. 30 min before testing, H(3)=20.412, p<0.001) | dose at which the decrease in number of marbles buried reached significance ([1]; clomipramine i.p. 30 min before testing)
CC(C)(C)C(O)/C=C/c1ccc2c(c1)OCO2 (racemic) [stiripentol] | dose-dependently decreased the number of marbles buried | 200 mg/kg | did not significantly modify the distance travelled | did not significantly impair the number of rearings | without any significant effect |  | 
CN(C)CCCN1c2ccccc2CCc2ccc(Cl)cc21 [clomipramine] |  |  |  |  |  | significantly reduced the number of marbles buried | 10 mg/kg and 20 mg/kg
